Columns and labels:
[1] = system: Botryotinia fuckeliana (Botrytis cinerea); assay: Botryotinia fuckeliana (Botrytis cinerea) / liquid culture (gray mould); assay type: cell-based; details: 72 h, read-out: control of Botryotinia fuckeliana
Fusarium culmorum [2] = assay: microbe, parasite or virus in culture; assay type: cell-based; details: read-out: control of Fusarium culmorum
Fusarium culmorum [3] = assay: whole plant or invertebrate; assay type: in vivo; details: in Triticum aestivum, read-out: control of Fusarium culmorum
[4] = system: Glomerella lagenarium (Colletotrichum lagenarium); assay: Glomerella lagenarium (Colletotrichum lagenarium) / liquid culture (anthracnose); assay type: cell-based; details: Colletotrichum orbiculare; read-out: control of Glomerella lagenarium

Cc1nc2c(F)cccc2cc1C(=O)N[C@@](C)(Cc1ccccc1)CC(F)(F)F [Compound F-33, N-[(1S)-1-benzyl-3,3,3-trifluoro-1-methyl-propyl]-8-fluoro-2-methyl-quinoline-3-carboxamide]
≥ 80%: inhibition of growth at 200 ppm [1] | inhibition of growth at 200 ppm (Fusarium culmorum [2]) | pest or weed control at 200 ppm (Fusarium culmorum [3]) | inhibition of growth at 200 ppm [4]

CCCC(Cc1ccccc1)(NC(=O)c1cnc2c(F)cccc2c1)C(F)(F)F (stereo not drawn) [Compound E-91, N-[1-benzyl-1-(trifluoromethyl)butyl]-8-fluoro-quinoline-3-carboxamide]
≥ 80%: inhibition of growth at 200 ppm [1] | inhibition of growth at 200 ppm (Fusarium culmorum [2]) | pest or weed control at 200 ppm (Fusarium culmorum [3]) | inhibition of growth at 200 ppm [4]

Cc1ccc2cc(C(=O)NC(C)(Cc3ccccc3)CC(F)(F)F)cnc2c1 (stereo not drawn) [Compound E-79, N-(1-benzyl-3,3,3-trifluoro-1-methyl-propyl)-7-methyl-quinoline-3-carboxamide]
≥ 80%: inhibition of growth at 200 ppm [1] | inhibition of growth at 200 ppm (Fusarium culmorum [2]) | pest or weed control at 200 ppm (Fusarium culmorum [3]) | inhibition of growth at 200 ppm [4]

Cc1cccc2cc(C(=O)N[C@](C)(Cc3ccccc3)CC(F)(F)F)cnc12 [Compound F-28, N-[(1R)-1-benzyl-3,3,3-trifluoro-1-methyl-propyl]-8-methyl-quinoline-3-carboxamide]
≥ 80%: inhibition of growth at 200 ppm [1] | inhibition of growth at 200 ppm (Fusarium culmorum [2]) | pest or weed control at 200 ppm (Fusarium culmorum [3]) | inhibition of growth at 200 ppm [4]

CC(Cc1ccccc1)(CC(F)F)NC(=O)c1cnc2c(F)cccc2c1 (stereo not drawn) [Compound E-95, N-(1-benzyl-3,3-difluoro-1-methyl-propyl)-8-fluoro-quinoline-3-carboxamide]
≥ 80%: inhibition of growth at 200 ppm [1] | inhibition of growth at 200 ppm (Fusarium culmorum [2]) | pest or weed control at 200 ppm (Fusarium culmorum [3]) | inhibition of growth at 200 ppm [4]

C=C(C)C[C@@](C)(Cc1ccccc1)NC(=O)c1cnc2c(F)c(F)ccc2c1 [Compound F-19, N-[(1S)-1-benzyl-1,3-dimethyl-but-3-enyl]-7,8-difluoro-quinoline-3-carboxamide]
≥ 80%: inhibition of growth at 200 ppm [1] | inhibition of growth at 200 ppm (Fusarium culmorum [2]) | pest or weed control at 200 ppm (Fusarium culmorum [3]) | inhibition of growth at 200 ppm [4]

CC(C)(Cc1ccccc1)NC(=O)c1cnc2c(F)cccc2c1 [Compound E-11, N-(1,1-dimethyl-2-phenyl-ethyl)-8-fluoro-quinoline-3-carboxamide]
≥ 80%: inhibition of growth at 200 ppm [1] | inhibition of growth at 200 ppm (Fusarium culmorum [2]) | pest or weed control at 200 ppm (Fusarium culmorum [3])

CC(Cc1ccccc1)(CC(F)(F)F)NC(=O)c1cnc2ccc(F)cc2c1 (stereo not drawn) [Compound E-84, N-(1-benzyl-3,3,3-trifluoro-1-methyl-propyl)-6-fluoro-quinoline-3-carboxamide]
≥ 80%: inhibition of growth at 200 ppm [1] | inhibition of growth at 200 ppm (Fusarium culmorum [2]) | pest or weed control at 200 ppm (Fusarium culmorum [3])

CC(Cc1ccccc1)(CC(F)(F)F)NC(=O)c1cnc2cccc(F)c2c1 (stereo not drawn) [Compound E-80, N-(1-benzyl-3,3,3-trifluoro-1-methyl-propyl)-5-fluoro-quinoline-3-carboxamide]
≥ 80%: inhibition of growth at 200 ppm [1] | inhibition of growth at 200 ppm (Fusarium culmorum [2]) | pest or weed control at 200 ppm (Fusarium culmorum [3])

COc1cccc2ncc(C(=O)NC(C)(Cc3ccccc3)CC(C)C)cc12 (stereo not drawn) [Compound E-75, N-(1-benzyl-1,3-dimethyl-butyl)-5-methoxy-quinoline-3-carboxamide]
≥ 80%: inhibition of growth at 200 ppm [1] | inhibition of growth at 200 ppm (Fusarium culmorum [2]) | pest or weed control at 200 ppm (Fusarium culmorum [3])

Cc1ccc2cc(C(=O)NC(C)(Cc3ccccc3)CC(C)C)cnc2c1 (stereo not drawn) [Compound E-72, N-(1-benzyl-1,3-dimethyl-butyl)-7-methyl-quinoline-3-carboxamide]
≥ 80%: inhibition of growth at 200 ppm [1] | inhibition of growth at 200 ppm (Fusarium culmorum [2]) | pest or weed control at 200 ppm (Fusarium culmorum [3])

COc1cccc2ncc(C(=O)NC(C)(Cc3ccccc3)CC(F)(F)F)cc12 (stereo not drawn) [Compound E-81, N-(1-benzyl-3,3,3-trifluoro-1-methyl-propyl)-5-methoxy-quinoline-3-carboxamide]
≥ 80%: inhibition of growth at 200 ppm [1] | inhibition of growth at 200 ppm (Fusarium culmorum [2]) | pest or weed control at 200 ppm (Fusarium culmorum [3])
